According to patent US11612583B2, “Disease modifying methods for treating neurodegenerative diseases using nootropic agents” (priority 2018, dated 2023):
“Also recorded” adds a separate entry of the source.

Columns and labels:
[1] = tested on: primary cortical neurons treated with rotenone; experiment: Image-based analysis of mitochondrial content in dendrites (MAP2B/TOM20 immunostaining); assay type: cell-based, mouse; conditions: after rotenone 65 nM; Forskolin/NKH477 6.5 μM-8.5 μM or 250 μM dbt-cAMP; FIG. 4
From the text: The rotenone-treated neurons were also studied by image-based analyses of mitochondrial content in dendrites from primary cortical neurons immunostained for dendrites (MAP2B) and for mitochondria (TOM20).

[2] = tested on: primary cortical neurons treated with rotenone; experiment: Extracellular acidification rates (ECARs), proxy for glycolysis, in rotenone-treated primary cortical neurons; assay type: cell-based, mouse; conditions: after rotenone 65 nM 24 hours, 6.5 μM-8.5 μM, FIG. 3
Procedure: Rotenone (1.26 mM stock, Sigma, Cat #R8875) was freshly prepared in water prior to each use. Stocks of rotenone were maintained in the dark at −20° C. for up to 6 months. […]
The extracellular acidification rates (ECARs), a proxy for glycolysis, were also assessed by using an XF24^e Extracellular Flux Analyzer in primary neurons.

[3] = tested on: PINK1-KO rats; experiment: Hind limb grip strength in PINK1-KO rats; assay type: in vivo, rat; conditions: intraperitoneal Forskolin 1.6 mg/kg with or without Noopept 0.05 μg/kg; 10 days; post vs pre-treatment; FIG. 11
Procedure: (§1) All experiments involving mice and rats were performed in accord with ARRIVE (Animal Research: Reporting of In Vivo Experiments) guidelines. Wild-type C57BL/6 and PINK1 knockout mice (B6.129S4-Pink1^tm1Slm/J), wild-type (Long Evans rats) and PINK1 knockout (LEH-PINK1^tm1sage.Park6) rats (SAGE labs through Horizon Discovery) were handled humanely and appropriately per the ARRIVE guidelines. All mice were housed at the Laboratory of Animal Resources (University of Nevada, Reno) in cages containing sufficient bedding, food (pellets), water, with sufficient social, nutritional and “enriched” environments, and maintained in HVAC-pressurized/sterile environment and in 12:12 hr light/dark cycles.
Wild-type (PINK1+/+) or PINK1 knockout (PINK1−/−) rats were treated with intraperitoneal injections of DMSO control or of Forskolin (1.6 mg/kg body weight) once every 2 days for two doses followed by co-administration with Noopept (0.05 μg/kg) for three more doses (once every two days) for up to a total treatment time of 10 days. […] In addition, muscle coordination and balance were assessed by subjecting the rats to cross a 1-meter, tapered beam balance (2 cm width) for up to three trials per animal. […]

[4] = tested on: PINK1-KO rats; experiment: Baseline oxygen consumption rates in midbrain slices of PINK1-KO rats; assay type: in vivo, rat; conditions: intraperitoneal Forskolin 1.6 mg/kg with or without Noopept 0.05 μg/kg; FIG. 12
Procedure: Wild-type (PINK1+/+) or PINK1 knockout (PINK1−/−) rats were treated with intraperitoneal injections of DMSO control or of Forskolin (1.6 mg/kg body weight) once every 2 days for two doses followed by co-administration with Noopept (0.05 μg/kg) for three more doses (once every two days) for up to a total treatment time of 10 days. At the end of each treatment, a battery of motor tests were performed in vehicle-treated or WT and PINK1-KO rats treated with compounds to analyze for muscle strength in hind legs by using a grip strength analyzer. In addition, muscle coordination and balance were assessed by subjecting the rats to cross a 1-meter, tapered beam balance (2 cm width) for up to three trials per animal. Upon completing the behavioral tests, the rats were then transcardially perfused with phosphate buffered saline, and the brains were extracted, midbrain slices were generated by using a vibratome (brain slicer) at room temperature and maintained in artificial cerebral spinal fluid. The oxygen consumption rates were then measured by using an XF24^e Metabolic Analyzer to measure energy production in the brain (oxidative phosphorylation) as described in Example 1 but with the following modifications. […] The brain slices were analyzed for baseline respiration for five cycles with each cycle consisting of 3 min. of mixing, 3 min. of waiting and 2 min. of measuring OCRs.

[5] = tested on: PINK1 knockout mice; experiment: Dendrite length and mitochondrial content of substantia nigra dopamine neurons in PINK1 knockout mice; assay type: in vivo, mouse; conditions: intraperitoneal 1 mg/kg once every 2 days up to one week, vs untreated PINK1 knockout mice
Procedure: as §1
Wild-type (PINK1+/+) or PINK1 knockout (PINK1−/−) mice were treated with intraperitoneal injections of DMSO control or Forskolin (1 mg/kg body weight) once every 2 days for up to one week. At the end of each treatment, mice were sacrificed, and intracardially perfused with saline followed by 4% formaldehyde. Midbrain slices from wild-type and PINK1 KO mice were immunostained for mitochondria (TOM20) and tyrosine hydroxylase (TH, purple) to identify midbrain dopamine neurons and dendrite length.

C=C[C@@]1(C)CC(=O)[C@]2(O)[C@@]3(C)[C@@H](O)CCC(C)(C)[C@@H]3[C@H](O)[C@H](OC(C)=O)[C@@]2(C)O1 [Forskolin]
mitochondrial content in dendrites (% of dendrites occupied by mitochondria) [1]: reversed the loss of mitochondria within dendrites; also recorded: completely blocked; also recorded: significantly restored
glycolysis (baseline ECARs) [2]: completely restored normal glycolytic function; also recorded: significantly restored
hind limb muscle strength [3]: can reverse the loss of hind limb strength; also recorded: can reverse the loss of muscle strength
basal respiration / oxidative phosphorylation in the midbrain (baseline OCRs) [4]: sufficient to reverse the loss in oxidative phosphorylation; also recorded: significantly restored basal respiration
dendrite length of substantia nigra dopamine neurons ([5]; FIG. 6A): significantly increased; also recorded: reverses the loss of dendrites
mitochondrial content in dendrites of substantia nigra dopamine neurons ([5]; FIG. 6B): significantly increased; also recorded: reverses the loss of dendrites and mitochondria in dendrites
